Reference: patent US8334235B2, “Thiadiazolyloxyphenylamidines and use thereof as fungicides” (Bayer Cropscience AG, priority 2008, dated 2012)

Assays:
[1] = test system: Puccinia triticina; assay: Puccinia triticina test (wheat)/protective; type: in vivo; conditions: 192 h, 500 ppm active substance, protective, evaluation 8 days after inoculation, read-out: degree of effectiveness
Protocol: (§1) • Solvent: 50 parts by weight of N,N-dimethylacetamide • Emulsifier: 1 part by weight of alkylaryl polyglycol ether (polyoxyethylene (16) tristearylphenyl ether)
(§2) To prepare a suitable active substance composition, 1 part by weight of active substance is mixed with the given amounts of solvent and emulsifier and the concentrate is diluted to the desired concentration using water.
For the testing of protective effectiveness, young plants are sprayed with the active substance composition in the application rate given. After the spray coating has been dried on, the plants are sprayed with a suspension of spores of Puccinia triticina. The plants remain in an incubation chamber at 20° C. and 100% relative humidity for 48 hours. The plants are placed in a greenhouse at a temperature of approximately 20° C. and a relative humidity of approximately 80%.
(§3) Evaluation is carried out 8 days after the inoculation. In this connection, 0% means a degree of effectiveness corresponding to that of the control, while a degree of effectiveness of 100% means that no infestation is observed.

[2] = test system: Sphaerotheca fuliginea; assay: Sphaerotheca test (cucumber)/protective; type: in vivo; conditions: Podosphaera fuliginea, 168 h, 500 ppm active substance, protective, evaluation 7 days after inoculation, read-out: degree of effectiveness
Protocol: • Solvent: 49 parts by weight of N,N-dimethylformamide • Emulsifier: 1 part by weight of alkylaryl polyglycol ether (polyoxyethylene (16) tristearylphenyl ether) To prepare a suitable active substance composition, 1 part by weight of active substance is mixed with the given amounts of solvents and emulsifier and the concentrate is diluted to the desired concentration using water. For the testing of protective effectiveness, young cucumber plants are sprayed with the active substance composition in the application rate given. One day after treatment, the plants are inoculated with a suspension of spores of Sphaerotheca fuliginea. The plants are then placed in a greenhouse at 70% relative humidity and a temperature of 23° C. Evaluation is carried out 7 days after the inoculation. In this connection, 0% means a degree of effectiveness corresponding to that of the control, while a degree of effectiveness of 100% means that no infestation is observed.

[3] = test system: Puccinia triticina; assay: Puccinia triticina test (wheat)/curative; type: in vivo; conditions: 192 h, 500 ppm active substance, curative, evaluation 8 days after inoculation, read-out: degree of effectiveness
Protocol: as §1, §2
For the testing of curative effectiveness, young plants are sprayed with a suspension of spores of Puccinia triticina. The plants remain in an incubation chamber at 20° C. and 100% relative humidity for 48 hours and are then sprayed with the active substance composition in the application rate given. The plants are placed in a greenhouse at a temperature of approximately 20° C. and a relative humidity of approximately 80%.
as §3

[4] = test system: bean rust pathogen Uromyces appendiculatus; assay: Uromyces test (beans)/protective; type: in vivo; conditions: 240 h, 100 ppm active substance, protective, evaluation 10 days after inoculation, read-out: degree of effectiveness
Protocol: (§4) • Solvents: 24.5 parts by weight of acetone • 24.5 parts by weight of dimethylacetamide • Emulsifier: 1 part by weight of alkylaryl polyglycol ether (polyoxyethylene (16) tristearylphenyl ether)
To prepare a suitable active substance composition, 1 part by weight of active substance is mixed with the given amounts of solvents and emulsifier and the concentrate is diluted to the desired concentration using water.
For the testing of protective effectiveness, young plants are sprayed with the active substance composition in the application rate given. After the spray coating has been dried on, the plants are inoculated with an aqueous suspension of the spores of the bean rust pathogen Uromyces appendiculatus and then remain in an incubation chamber at approximately 20° C. and 100% relative humidity for 1 day.
The plants are then placed in a greenhouse at approximately 21° C. and a relative humidity of approximately 90%.
Evaluation is carried out 10 days after the inoculation. In this connection, 0% means a degree of effectiveness corresponding to that of the control, while a degree of effectiveness of 100% means that no infestation is observed.

[5] = test system: Alternaria solani; assay: Alternaria test (tomato)/protective; type: in vivo; conditions: 72 h, 100 ppm active substance, protective, evaluation 3 days after inoculation, read-out: degree of effectiveness
Protocol: as §4
To prepare a suitable active substance composition, 1 part by weight of substance is mixed with the given amounts of solvents and emulsifier and the concentrate is diluted to the desired concentration using water.
For the testing of protective effectiveness, young plants are sprayed with the active substance composition in the application rate given. After the spray coating has been dried on, the plants are inoculated with an aqueous suspension of spores of Alternaria solani. The plants are then placed in an incubation chamber at approximately 20° C. and 100% relative humidity.
Evaluation is carried out 3 days after the inoculation. In this connection, 0% means a degree of effectiveness corresponding to that of the control, while a degree of effectiveness of 100% means that no infestation is observed.

[6] = log P (pH 2.3); type: physicochemical

logP [6]	Compound	pest or weed control at 500 ppm [1]	pest or weed control at 500 ppm [2]	pest or weed control at 500 ppm [3]	pest or weed control at 100 ppm [4]	pest or weed control at 100 ppm [5]
–	CCN(C)/C=N/c1cc(C)c(Oc2nc(C(C)c3ccc(Cl)cc3)ns2)cc1Cl (stereo not shown) [Compound 6]	≥ 70%	≥ 70%	≥ 70%	≥ 70%	–
–	CCN(C)/C=N/c1cc(C)c(Oc2nc(C(C)(C)CCl)ns2)cc1Cl [Compound 39, N′-(2-chloro-4-{[3-(1-chloro-2-methylpropan-2-yl)-1,2,4-thiadiazol-5-yl]oxy}-5-methylphenyl)-N-ethyl-N-methylimidoformamide]	≥ 70%	≥ 70%	≥ 70%	≥ 70%	≥ 70%
3.67	Cc1ccc(S(=O)(=O)c2nc(C3(Cl)CC3)ns2)cc1 [3-(1-Chlorocyclopropyl)-5-{(4-methylphenyl)sulphonyl}-1,2,4-thiadiazole]	–	–	–	–	–
–	CCN(C)/C=N/c1cc(C)c(Oc2nc(Cc3ccc(Cl)cc3Cl)ns2)cc1Cl [Compound 38, N′-(2-chloro-4-{[3-(2,4-dichlorobenzyl)-1,2,4-thiadiazol-5-yl]oxy}-5-methylphenyl)-N-ethyl-N-methylimidoformamide]	≥ 70%	≥ 70%	≥ 70%	≥ 70%	–
–	CCN(C)C=Nc1cc(C)c(Oc2nc(C3(C)CC3(Cl)Cl)ns2)cc1Cl (stereo not shown) [Compound 32, N′-(2-chloro-4-{[3-(2,2-dichloro-1-methylcyclopropyl)-1,2,4-thiadiazol-5-yl]oxy}-5-methylphenyl)-N-ethyl-N-methylimidoformamide]	≥ 70%	≥ 70%	≥ 70%	≥ 70%	≥ 70%
–	Cc1cc(N=CN(C)C(C)C)c(Cl)cc1Oc1nc(C(C)c2ccc(Cl)cc2)ns1 (stereo not shown) [Compound 8, N′-[2-chloro-4-({3-[1-(4-chlorophenyl)ethyl]-1,2,4-thiadiazol-5-yl}oxy)-5-methylphenyl]-N-methyl-N-(propan-2-yl)imidoformamide]	–	≥ 70%	–	≥ 70%	–
3.36	O=c1oc(CCc2ccc(Cl)cc2)ns1 [5-[2-(4-Chlorophenyl)ethyl]-1,3,4-oxathiazol-2-one]	–	–	–	–	–
–	CCN(C)/C=N/c1cc(C)c(Oc2nc(Cc3ccc(Cl)cc3)ns2)cc1Cl [Compound 18, N′-(2-chloro-4-{[3-(4-chlorobenzyl)-1,2,4-thiadiazol-5-yl]oxy}-5-methylphenyl)-N-ethyl-N-methylimidoformamide]	≥ 70%	≥ 70%	≥ 70%	≥ 70%	–
–	CCN(C)/C=N/c1cc(C)c(Oc2nc(C(C)(C)C)ns2)cc1Cl [Compound 1, N′-{4-[(3-(tert-butyl)-1,2,4-thiadiazol-5-yl)oxy]-2-chloro-5-methylphenyl}-N-ethyl-N-methylimidoformamide]	≥ 70%	≥ 70%	≥ 70%	≥ 70%	≥ 70%
–	CCN(C)/C=N/c1cc(C)c(Oc2nc(Cc3ccc(Br)cc3)ns2)cc1Cl [Compound 33, N′-(4-{[3-(4-bromobenzyl)-1,2,4-thiadiazol-5-yl]oxy}-2-chloro-5-methylphenyl)-N-ethyl-N-methylimidoformamide]	≥ 70%	≥ 70%	≥ 70%	–	≥ 70%
–	CCN(C)/C=N/c1cc(C)c(Oc2nc(Cc3ccccc3)ns2)cc1Cl [Compound 14, N′-{4-[(3-benzyl-1,2,4-thiadiazol-5-yl)oxy]-2-chloro-5-methylphenyl}-N-ethyl-N-methylimidoformamide]	≥ 70%	≥ 70%	≥ 70%	≥ 70%	≥ 70%
–	Cc1cc(N=CN(C)C(C)C)c(Cl)cc1Oc1nc(C(C)(C)c2ccc(Cl)cc2)ns1 [Compound 13, N′-[2-chloro-4-({3-[2-(4-chlorophenyl)propan-2-yl]-1,2,4-thiadiazol-5-yl}oxy)-5-methylphenyl]-N-methyl-N-(propan-2-yl)imidoformamide]	≥ 70%	≥ 70%	≥ 70%	–	≥ 70%
2.64	Cc1cc(/N=C\N2CCCCC2)c(Cl)cc1Oc1nc(CCc2ccc(Cl)cc2)ns1 [Compound 10, 2-chloro-4-({3-[2-(4-chlorophenyl)ethyl]-1,2,4-thiadiazol-5-yl}oxy)-5-methyl-N-[(Z)-piperidin-1-ylmethylidene]aniline]	–	–	–	–	–
–	CCN(C)C=Nc1cc(C)c(Oc2nc(/C=C/c3ccc(F)cc3)ns2)cc1Cl [Compound 15, N′-[2-chloro-4-({3-[(E)-2-(4-fluorophenyl)ethenyl]-1,2,4-thiadiazol-5-yl}oxy)-5-methylphenyl]-N-ethyl-N-methylimidoformamide]	≥ 70%	≥ 70%	≥ 70%	≥ 70%	≥ 70%
–	CCN(C)C=Nc1cc(C)c(Oc2nc(C3(c4ccc(Cl)cc4)CC3)ns2)cc1Cl [Compound 17, N′-[2-chloro-4-({3-[1-(4-chlorophenyl)cyclopropyl]-1,2,4-thiadiazol-5-yl}oxy)-5-methylphenyl]-N-ethyl-N-methylimidoformamide]	≥ 70%	≥ 70%	≥ 70%	≥ 70%	≥ 70%
4.62	Cc1ccc(S(=O)(=O)c2nc(CCc3ccc(Cl)cc3)ns2)cc1 [3-[2-(4-Chlorophenyl)ethyl]-5-[(4-methylphenyl)sulphonyl]-1,2,4-thiadiazole]	–	–	–	–	–
–	CCN(C)/C=N/c1cc(C)c(Oc2nc(C(C)(C)C)ns2)cc1Br [Compound 2, N′-{2-bromo-4-[(3-(tert-butyl)-1,2,4-thiadiazol-5-yl)oxy]-5-methylphenyl}-N-ethyl-N-methylimidoformamide]	≥ 70%	≥ 70%	≥ 70%	≥ 70%	≥ 70%
4.5	Cc1cc(N)c(Cl)cc1Oc1nc(CCc2ccc(Cl)cc2)ns1 [2-Chloro-4-({3-[2-(4-chlorophenyl)ethyl]-1,2,4-thiadiazol-5-yl}oxy)-5-methylaniline]	–	–	–	–	–
3.5	Cc1cc(N)c(Cl)cc1Oc1nc(C2(Cl)CC2)ns1 [2-Chloro-4-{[3-(1-chlorocyclopropyl)-1,2,4-thiadiazol-5-yl]oxy}-5-methylaniline]	–	–	–	–	–
–	CCN(C)/C=N/c1cc(C)c(Oc2nc(C(C)(C)c3ccc(Cl)cc3)ns2)cc1Cl [Compound 11, N′-[2-chloro-4-({3-[2-(4-chlorophenyl)propan-2-yl]-1,2,4-thiadiazol-5-yl}oxy)-5-methylphenyl]-N-ethyl-N-methylimidoformamide]	≥ 70%	≥ 70%	≥ 70%	–	≥ 70%
